Measured values from US12649717B2, “Cyanine-derived compound, preparation method therefor, and application thereof” (priority 2020, dated 2026).

Legend:
HeLa cells = test: Phototoxicity assay: HeLa cell viability (PI staining) after LED irradiation; details: for Cell viability under 1-minute irradiation / Cell viability under 5-minute irradiation / Cell viability under 15-minute irradiation: PI viability counting after 2 hours at 37° C.
Description: HeLa cells were irradiated with corresponding LED light (same light intensity for the same channel) for different periods of time under a widefield fluorescence microscope. The irradiated cells were incubated for 2 hours in a cell incubator at 37° C. Then, the cells were stained with propidium iodide (PI) for viability counting.

Rat cardiomyocytes = test: 3D-laser confocal time-series imaging of labeled rat cardiomyocytes; format: cell-based; details: 250 nM, 10-15 minutes staining
Description: Then, different microscopic imaging experiments were carried out.

Row | Compound | Cell viability under 1-minute irradiation (HeLa cells) [%] | Cell viability under 5-minute irradiation (HeLa cells) [%] | Cell viability under 15-minute irradiation (HeLa cells) [%] | Time sequences after which labeled cells violently contracted to death (Rat cardiomyocytes) [time sequences] | Phototoxicity relative to commercial dyes (times less phototoxic) (HeLa cells; HeLa cells, versus MTR CMXRos, MTDR (b53 also versus non-optimized compounds of 1-6)) | Phototoxicity comparison (in words) (HeLa cells; cell viability after continuous irradiation under high light intensity)
1 | C[N+]1=C(/C=C/C=C/C=C2\N(Cc3ccc(CCl)cc3)c3ccccc3C2(C)C)C(C)(C)c2ccccc21.[Cl-] [MitoTracker Deep Red FM] | 100 | 0 | 0 | 8 | – | –
2 | ClCc1ccc(C2=c3cc4c5c(c3Oc3c2cc2c6c3CCCN6CCC2)CCC[N+]=5CCC4)cc1.[Cl-] [MitoTracker Red CMXRos] | 86.9 | 0 | 0 | – | – | –
3 | CC1(C)C(/C=C/C=C2/N(CCOC(=O)c3ccccc3)c3ccc4ccccc4c3C2(C)C)=[N+](CCOC(=O)c2ccccc2)c2ccc3ccccc3c21.[Br-] [Probe 1-6-1] | 100 | 95 | 25 | – | – | –
4 | CC1=[N+](CCN)c2ccc3ccccc3c2C1(C)C.[Br-] [Probe 1-6] | 100 | 99 | 95 | – | about 5 times | lower phototoxicity
